Tested on: human MSCs
Experiment: Stem cell migration assay (percent closure of cell-free zone)
Details: for effect on MSC migration induced by curcumin and quercetin / effect on MSC migration induced by curcumin and resveratrol: 20 micromolar AMD3100 / 15 micromolar GM6001; for effect on MSC migration induced by curcumin and quercetin: FIG. 14; for effect on MSC migration induced by curcumin and resveratrol: FIG. 15
Method: FIG. 1 is a microphotograph depicting cell migration using fluorescent readout and cell tracker green as a fluorescent marker of human UC-MSCs. […] The EC50 was determined as a measure of effectiveness of activating agents. […] An initial analysis of the cell free zone using Image J software was used to screen concentrations of activating agents for dose-response determination in further experiments.
The cell migration assays described above were set up as follows: One million cells/cell line were resuspended in 10 mL MSC-GRO™ serum free, quiescent medium (Vitro Biopharma Cat. No. SC00B17) containing […] mitomycin C (Sigma, Cat. No. M4287) to inhibit proliferation and incubated for 2 hours at room temperature with end-to-end agitation at 7 RPM. In some experiments, curcumin was used at 1 μM to block proliferation. Cells were centrifuged (450×g) for 7 minutes, washed with phosphate buffered saline (PBS) and then resuspended in 1 mL MSC-GRO™ low serum, complete 20 medium (Vitro Biopharma Cat. No. SC00B1) and plated at 25,000 cells/well in black 96 well, TC-coated cell culture plates, (ThermoScientific, Cat. No. 165305) containing cell seed-stoppers (Platypus, Cat. No. CMAUFL4) to form a cell free zone at the center of the well and incubated in 5% CO2, 1% O2, 94% N2 at 37° C. in a humidified chamber for 24 hrs. Plates used for culture of NSCs, were first treated with 10 μg/mL fibronectin (Sigma, Cat. No. F0556) for 2 hours at 37° C. Following washout with PBS (3×), cell seed stoppers were inserted, NSCs were plated at 25,000/well and incubated in 5% CO2, 1% O2, 94% N2 at 37° C. in a humidified chamber for 48 hrs. For studies of the effects of CXCR4 and MMP-9 inhibition, following 24 hours of cell culture, appropriate wells were dosed with 15 μM GM6001 and 20 μM AMD3100 for 6 hours. Cells were washed once with PBS then incubated in serum free, MSC-GRO™ (Vitro Biopharma Cat. No. SC00B17) containing 5 μM Cell Tracker Green CMFDA (Molecular Probes, Cat. No. C7025) at 37° C. for 30 minutes. The wells were then washed with serum free, MSC-Gro™ (Vitro Biopharma Cat. No. SC00B17) and incubated for 30 minutes at 37° C. Cells were washed once with PBS and this was replaced with MSC-GRO™ serum free, quiescent medium (Vitro Biopharma Cat. No. SC00B1I7) containing different concentrations of activating agents. […] A TOPSEAL™ (PerkinElmer, Cat. No. 6050195) covered the plate for live-cell imaging in a BioTek Cytation3 Imaging Reader. […] The gas phase throughout the acquisition of kinetic data was 5% O2, 5% CO2 with the balance nitrogen maintained by a BioTek CO2/O2 gas controller. Images were saved as TIFF files to calculate percent closure using imaging data.

## c1cc(CN2CCCNCCNCCCNCC2)ccc1CN1CCCNCCNCCCNCC1 [AMD3100]
20 μM AMD3100, CXCR-4 inhibitor, FIG. 7
  effect on VPA-induced CB-MSC migration: blocked the VPA-induced CB-MSC migration
  effect on MSC migration induced by curcumin and quercetin: blocked MSC migration
  effect on MSC migration induced by curcumin and resveratrol: blocked MSC migration

## CNC(=O)[C@H](Cc1c[nH]c2ccccc12)NC(=O)[C@@H](CC(=O)NO)CC(C)C [GM6001]
15 μM GM6001, MMP-9 inhibitor, FIG. 7
  effect on lithium induced CB-MSC migration: blocked lithium induced CB-MSCs
  effect on MSC migration induced by curcumin and quercetin: blocked MSC migration
  effect on MSC migration induced by curcumin and resveratrol: blocked MSC migration
